Experimental data taken from the supplement of paper PMC10307832.

What was measured:
Experiment in all cases: relative viability (nuclei count vs DMSO), 5 days (fraction); higher = more cells survive
[1] = compound: CC1=C(C(=NN1)C)CC2=C(C3=C(S2)N(C(=O)N(C3=O)C)CC(C)C)C(=O)N4C[C@@H](CO4)O + CC(=O)Nc1cccc(-n2c(=O)n(C3CC3)c(=O)c3c(Nc4ccc(I)cc4F)n(C)c(=O)c(C)c32)c1 [Trametinib] (partner 0.02 µM)
In short: (§1)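 Cells from lung cancer lines were seeded into 1536-well plates and, one day later, dosed by pin tool. Treatments were either a single drug or a fixed dose of an anchor drug with five library-drug doses (not always all listed) in √10 steps. After 5 days, nuclei were stained in a one-step fixation (final 0.05% Triton X-100, 1% formaldehyde, 1 ug/ml Hoechst) and counted on 4× images, and relative viability is the treated-to-vehicle nuclei ratio, as the median of duplicate plates.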

IDH-C35 + Pictilisib = compound: Cc1ccccc1C(C(=O)NC1CCCCC1)N(C(=O)Cn1ccnc1C)c1cccc(F)c1 [IDH-C35] + CS(=O)(=O)N1CCN(Cc2cc3nc(-c4cccc5[nH]ncc45)nc(N4CCOCC4)c3s2)CC1 [Pictilisib] (partner 1 µM)
In short: as §1

IDH-C35 + Olaparib = compound: Cc1ccccc1C(C(=O)NC1CCCCC1)N(C(=O)Cn1ccnc1C)c1cccc(F)c1 [IDH-C35] + O=C(c1cc(Cc2n[nH]c(=O)c3ccccc23)ccc1F)N1CCN(C(=O)C2CC2)CC1 [Olaparib] (partner 8 µM)
In short: as §1

[2] = compound: CC1=C(C(=NN1)C)CC2=C(C3=C(S2)N(C(=O)N(C3=O)C)CC(C)C)C(=O)N4C[C@@H](CO4)O + CCNC(=O)c1noc(-c2cc(C(C)C)c(O)cc2O)c1-c1ccc(CN2CCOCC2)cc1 [Luminespib] (partner 0.01 µM)
In short: as §1

Cell Line | relative viability ([1]; first compound 0.0025 µM) | relative viability ([1]; first compound 0.007906 µM) | relative viability ([1]; first compound 0.025 µM) | relative viability ([1]; first compound 0.07906 µM) | relative viability ([1]; first compound 0.25 µM) | relative viability (IDH-C35 + Pictilisib; first compound 0.08 µM) | relative viability (IDH-C35 + Pictilisib; first compound 0.253 µM) | relative viability (IDH-C35 + Pictilisib; first compound 0.8 µM) | relative viability (IDH-C35 + Pictilisib; first compound 2.53 µM) | relative viability (IDH-C35 + Pictilisib; first compound 8 µM) | relative viability (IDH-C35 + Olaparib; first compound 0.08 µM) | relative viability (IDH-C35 + Olaparib; first compound 0.253 µM) | relative viability (IDH-C35 + Olaparib; first compound 0.8 µM) | relative viability (IDH-C35 + Olaparib; first compound 2.53 µM) | relative viability (IDH-C35 + Olaparib; first compound 8 µM) | relative viability ([2]; first compound 0.0025 µM) | relative viability ([2]; first compound 0.007906 µM) | relative viability ([2]; first compound 0.025 µM) | relative viability ([2]; first compound 0.07906 µM) | relative viability ([2]; first compound 0.25 µM)
HCC-78 | 0.796 | 0.77 | 0.775 | 0.663 | 0.811 | 0.211 | 0.243 | 0.199 | 0.243 | 0.219 | 0.91 | 0.78 | 0.883 | 0.932 | 0.741 | – | – | – | – | –
HCC-366 | 0.367 | 0.501 | 0.376 | 0.455 | 0.324 | 0.12 | 0.132 | 0.169 | 0.151 | 0.178 | 0.353 | 0.361 | 0.345 | 0.36 | 0.326 | – | – | – | – | –
HCC-827 | 0.556 | 0.542 | 0.529 | 0.51 | 0.521 | 0.966 | 0.921 | 1.02 | 1.13 | 1.17 | 0.545 | 0.608 | 0.614 | 0.708 | 0.658 | 0.748 | 0.445 | 0.56 | 0.513 | 0.482
HOP-62 | 0.365 | 0.402 | 0.408 | 0.435 | 0.4 | 0.509 | 0.744 | 0.537 | – | 0.581 | 0.46 | 0.222 | 0.272 | – | 0.39 | 0.892 | 1.01 | 0.809 | 0.824 | 0.986
IA-LM | – | – | – | – | – | 0.381 | 0.382 | 0.33 | 0.325 | 0.322 | 0.872 | 0.88 | 0.731 | 0.744 | 0.963 | – | – | – | – | –
LC-2-ad | 0.928 | 0.874 | 0.922 | 0.896 | 0.927 | 0.595 | 0.472 | 0.439 | 0.441 | 0.455 | 0.728 | 0.707 | 0.715 | 0.729 | 0.702 | 0.967 | 1.13 | 0.968 | 1.01 | 1.17
LCLC-97TM1 | 0.178 | 0.184 | 0.249 | 0.158 | 0.189 | 0.17 | 0.168 | 0.192 | – | 0.192 | 0.322 | 0.291 | 0.341 | – | 0.47 | 0.611 | 0.774 | 0.889 | 0.698 | 0.801
LCLC-103H | 0.681 | 0.689 | 0.664 | 0.688 | 0.661 | 0.7 | 0.62 | 0.536 | 0.715 | 0.603 | 0.788 | 0.71 | 0.807 | 0.777 | 0.711 | 0.966 | 0.885 | 0.976 | 0.939 | 1.1
LK-2 | 0.703 | 0.952 | 0.651 | 0.613 | 0.61 | 0.584 | 0.501 | 0.456 | 0.496 | 0.565 | 0.842 | 0.772 | 0.575 | 0.701 | 0.73 | 0.219 | 0.148 | 0.223 | 0.202 | 0.186
